Measurements taken from patent US20100298394A1, “ANTIFUNGAL AGENTS AS NEUROPROTECTANTS” (THE JOHNS HOPKINS UNIVERSITY, priority 2007, published 2010).

Assays:
[1] = tested on: Human cortical neuronal cultures; assay: 3-NP toxicity assay in human neurons, MTT endpoint; type: cell-based; conditions: increasing concentrations, 1 h prior to 3 mM 3-NP for 18 h
Method: (§1) Human cortical neuronal cultures were treated with increasing concentrations of fluconazole for 1 h prior to exposure to 3 mM 3-NP (panel A) or 100 μM 6-OHDA (panel B) for 18 h. Cell survival was measured by MTT assay. Statistical significance was determined by ANOVA with Newman-Keuls pairwise post hoc comparisons. Statistical significance * indicates p<0.05, ** indicates p<0.01; *** indicates p<0.001.
(§2) FIG. 9 illustrates the protection of human neuronal cultures from 3-NP and 6-OHDA with fluconazole (FIGS. 9A-9B, respectively). The neural and glial cells were preincubated with the neuroprotective compound for 1 hour followed by exposure to 3 mM 3-NP or 100 μM 6-OHDA for 18 hours.

[2] = tested on: Mixed hippocampal cultures; assay: ADP ribose toxicity assay, MTT endpoint; type: cell-based, rat; conditions: increasing concentrations, 24 h prior to 1 mM ADP ribose for 18 h
Method: Mixed hippocampal cultures were treated with increasing concentrations of fluconazole (panel A) or voriconazole (panel B), for 24 h prior to exposure to 1 mM ADP ribose for 18 h. Cell survival was measured following ADP ribose by MTT assay. Statistical significance was determined by ANOVA with Newman-Keuls pairwise post hoc comparisons. Statistical significance * indicates p<0.05, ** indicates p<0.01; *** indicates p<0.001.
(§3) Rat mixed hippocamal neuronal cultures are generated from freshly dissected rat hippocampi (embryonic day 18) in neurobasal media containing 5% fetal bovine serum and 2% B27 supplement. The cells are plated into 96 well plates at a density of 4×10^5 cells/mL and routinely used on days 11-14 following culturing. Cell viability is assessed with MTT [3-(4,5-dimethylthiazol-2-yl)-2,5-diphenyltetrazolium bromide] assay. The MTT assay is based on the ability of a mitochondrial dehydrogenase enzyme from viable cells to cleave the tetrazolium rings of the pale yellow MTT and form dark blue formazan crystals. See Mosmann (1983), J Immunol Methods, 65(1-2):55-63. These crystals are largely impermeable to cell membranes, and thus accumulate within healthy cells. The resultant formazan precipitates are solubilized with DMSO and read on a multiwell scanning spectrophotometer (ELISA reader). […]

[3] = tested on: rat mixed hippocampal cultures; assay: 3-NP neurotoxicity (neuroprotection) assay, MTT endpoint; type: cell-based; conditions: for protection from oxidative damage elicited by 3-NP (FIG. 4): increasing concentrations, 1 h prior to 3 mM 3-NP for 18 h
Method: For example, a cell viability assay can be utilized to detect and/or measure the ability of a compound disclosed herein to protect neuronal and/or glial cells. In some embodiments, mixed hippocampal cell cultures are prepared as described in, e.g., Haughey et al. (1999), J Neurochem, 73(4):1363-1374, and Haughey et al (2004), J Neurosci, 24(1):257-268. Subsequently, the cultures are pretreated for one hour in the presence of a candidate neuroprotective agent and then incubated with a cytotoxic agent for about 18 hours. Examples of cytotoxic agents include, but are not limited to, oxidative stressors (e.g., 3-nitropropionic acid (3-NP) or H2O2),.excitatory amino acids (e.g., kainate), or neurotoxic proteins (e.g., Hiv Tat, or Aβ peptides). […] The level of protection (“percent protection”) provided by the test compound at a given test concentration in vitro can be expressed as: […]
(§4) We evaluate the protective efficacy of a number of antifungal agents against many different neurotoxins, ranging from the chemotoxic 6-OHDA, NMDA, 3-nitropropionic acid (3-NP), and viral proteins such as Tat and gp120. Thus, we provide an in vitro neuroprotection assay using rat mixed hippocampal cultures, in which we evaluate the protective efficacy of neuroprotective compounds described herein. The oxidative stressor 3-NP is used to elicit toxicity in the rat hippocampal cultures to mimic the oxidative damage, reactive oxygen species production and ensuing neurodegeneration resulting from HIV infection. Another measure of neurotoxicity which results from HIV infection is evaluated by exposure of the hippocampal cultures to HIV-1 Tat (Li et al (2005), Neurotox Res, 8(1-2):119-134).
(§5) Rat mixed hippocamal neuronal cultures are generated from freshly dissected rat hippocampi (embryonic day 18) in neurobasal media containing 5% fetal bovine serum and 2% B27 supplement. The cells are plated into 96 well plates at a density of 4×10^5 cells/mL and routinely used on days 11-14 following culturing. Cell viability is assessed with MTT [3-(4,5-dimethylthiazol-2-yl)-2,5-diphenyltetrazolium bromide] assay. The MTT assay is based on the ability of a mitochondrial dehydrogenase enzyme from viable cells to cleave the tetrazolium rings of the pale yellow MTT and form dark blue formazan crystals. See Mosmann (1983), J Immunol Methods, 65(1-2):55-63. These crystals are largely impermeable to cell membranes, and thus accumulate within healthy cells. The resultant formazan precipitates are solubilized with DMSO and read on a multiwell scanning spectrophotometer (ELISA reader). The number of surviving cells is directly proportional to the level of the formazan product created.
(§6) Mixed hippocampal cultures are incubated with 3-NP (0.5-10 mM) for 18 hours in a 0.1% DMSO vehicle and then assessed for viability using an MTT assay.
Neuroprotection vs 3NP is measured as a percentage of neural and/or glial cell that are protected from 3NP induced cell death after incubation with the neuroprotective agent (10 μM) for 60 minutes when compared to a 0.1% DMSO vehicle control.
The neural and glial cells were preincubated with the neuroprotective compound for 1 hour followed by exposure to3 mM of the toxin for 18 hours.

[4] = tested on: Mixed hippocampal cultures; assay: NMDA excitotoxicity assay, MTT endpoint; type: cell-based, rat; conditions: increasing concentrations, 1 h prior to 500 μM NMDA for 18 h
Method: Mixed hippocampal cultures were treated with increasing concentrations of fluconazole (panel A) or voriconazole (panel B), for 1 h prior to exposure to 500 μM N-methyl D-aspartate (NMDA) for 18 h. Cell survival was measured following NMDA by MTT assay. Statistical significance was determined by ANOVA with Newman-Keuls pairwise post hoc comparisons. Statistical significance * indicates p<0.05, ** indicates p<0.01; *** indicates p<0.001.
as §3

[5] = tested on: Mixed hippocampal cultures; assay: 6-OHDA neurotoxicity assay, MTT endpoint; type: cell-based, rat; conditions: increasing concentrations, 1 h prior to 100 μM 6-OHDA for 18 h
Method: Mixed hippocampal cultures were treated with increasing concentrations of fluconazole (panel A) or voriconazole (panel B), for 1 h prior to exposure to 100 μM 6-hydroxydopamine (6-OHDA) for 18 h. Cell survival was measured following 6-OHDA by MTT assay. Statistical significance was determined by ANOVA with Newman-Keuls pairwise post hoc comparisons. Statistical significance * indicates p<0.05, ** indicates p<0.01; *** indicates p<0.00
as §3

[6] = tested on: rat mixed hippocampal cultures; assay: HIV-1 Tat neurotoxicity assay, MTT endpoint; type: cell-based; conditions: increasing concentrations, 1 hour preincubation, 500 nM Tat1-72 for 18 hours
Text: as §4, §5
The assay system is validated using two neuroprotective agents, GPI 1046 and Resveratrol. […] Cultures are preincubated with GPI 1046 or Resveratrol for one hour prior to an 18 hour exposure to 3 mM 3-NP. […] The same neuroprotective compounds are evaluated for efficacy against HIV-1 Tat protein toxicity using the same 1 hour preincubation protocol.
The neural and glial cells were preincubated with the neuroprotective compound for 1 hour followed by exposure to 500 nM of Tat1-72 for 18 hours.

[7] = tested on: Human cortical neuronal cultures; assay: 6-OHDA toxicity assay in human neurons, MTT endpoint; type: cell-based; conditions: increasing concentrations, 1 h prior to 100 μM 6-OHDA for 18 h
Method: as §1, §2

[8] = tested on: rat mixed hippocampal cultures; assay: Titration of 3-NP toxicity, MTT endpoint; type: cell-based; conditions: 3 mM 3-NP, 18 hours, compared to 0.1% DMSO vehicle control
Method: FIG. 1 presents an illustrative titration of 3-NP toxicity in rat mixed hippocampal cultures. Rat mixed hippocampal cultures, day 11-14 in vitro, were subjected to 18 hour exposure to 3-NP, followed by MTT treatment to quantitate cell viability.
as §5, §6

[9] = 10 μM agent, 60 minutes incubation, 3 mM 3-NP, compared to 0.1% DMSO vehicle control

With `OC(Cn1cncn1)(Cn1cncn1)c1ccc(F)cc1F` [FLUCONAZOLE, Fluconazole] the “protection of human cortical neurons from 3-NP toxicity (FIG. 9A)” value [1] was “protects human cortical neurons”, the “protection from toxicity elicited by ADP ribose (FIG. 8)” value [2] was “protect hippocampal neurons from toxicity elicited by ADP ribose” and the “% Protection vs. 3-NP” value [3, 9] was 13.3%. For the same compound, the “Protection vs 3NP” value [3, 9] was 13.35%, the “protection from oxidative damage elicited by 3-NP (FIG. 4)” value [3] was “protect hippocampal neurons from oxidative damage elicited by 3-NP” and the “protection from excitotoxic lesions elicited by NMDA (FIG. 6)” value [4] was “protect hippocampal neurons from excitotoxic lesions elicited by NMDA”. The “protection from 6-OHDA neurotoxicity (FIG. 7)” value [5] was “protect hippocampal neurons from 6-OHDA neurotoxicity”, the “protection of hippocampal cultures from HIV-Tat toxicity (FIG. 5)” value [6] was “concentration dependent protection” and the “protection of human cortical neurons from 6-OHDA toxicity (FIG. 9B)” value [7] was “protects human cortical neurons”.

For `O=C(O)CC[N+](=O)[O-]` [3-NP, 3-nitropropionic acid], the cytotoxicity [8] was 25-35%.

For `C[C@@H](c1ncncc1F)[C@](O)(Cn1cncn1)c1ccc(F)cc1F` [voriconazole], the “protection from toxicity elicited by ADP ribose (FIG. 8)” value [2] was “protect hippocampal neurons from toxicity elicited by ADP ribose”, the “protection from oxidative damage elicited by 3-NP (FIG. 4)” value [3] was “protect hippocampal neurons from oxidative damage elicited by 3-NP” and the “protection from excitotoxic lesions elicited by NMDA (FIG. 6)” value [4] was “protect hippocampal neurons from excitotoxic lesions elicited by NMDA”. For the same compound, the “protection from 6-OHDA neurotoxicity (FIG. 7)” value [5] was “protect hippocampal neurons from 6-OHDA neurotoxicity” and the “protection of hippocampal cultures from HIV-Tat toxicity (FIG. 5)” value [6] was “concentration dependent protection”.
